Laboratory results from ChEMBL document CHEMBL1201862, “PubChem BioAssay data set” (2004).
Active and inactive are the calls of the source.

How the values were obtained:
[1] = target: Neurotensin receptor type 1 (Homo sapiens, UniProt P30989); type: functional;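 note: Image-based confirmatory dose-response assay measuring agonist activity at NTR1; NTR1-expressing U2OS osteosarcoma cells imaged for beta-arrestin GFP spot formation; agonist potency where compounds increase beta-arrestin recruitment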
[2] = inhibitors of intracellular T. cruzi replication, confirmation, NIH3T3 host cells, beta-gal luminescence (AID 2044); type: functional, cell-based;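 note: intracellular parasites grown in NIH/3T3 mouse fibroblasts as host cells; luminescent beta-galactosidase reporter signal from transgenic T. cruzi replicating inside host cells; inhibitors lower the luminescence signal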
[3] = target: T1, Rac GTPase-activating protein 1 (Homo sapiens, UniProt Q9H0H5); experiment: MgcRacGAP GTPase-activating activity inhibitors, confirmation, biochemical, ADP Hunter fluorescence, primary and confirmatory (AID 624330); type: functional
T1 sequence (Q9H0H5 whole entry): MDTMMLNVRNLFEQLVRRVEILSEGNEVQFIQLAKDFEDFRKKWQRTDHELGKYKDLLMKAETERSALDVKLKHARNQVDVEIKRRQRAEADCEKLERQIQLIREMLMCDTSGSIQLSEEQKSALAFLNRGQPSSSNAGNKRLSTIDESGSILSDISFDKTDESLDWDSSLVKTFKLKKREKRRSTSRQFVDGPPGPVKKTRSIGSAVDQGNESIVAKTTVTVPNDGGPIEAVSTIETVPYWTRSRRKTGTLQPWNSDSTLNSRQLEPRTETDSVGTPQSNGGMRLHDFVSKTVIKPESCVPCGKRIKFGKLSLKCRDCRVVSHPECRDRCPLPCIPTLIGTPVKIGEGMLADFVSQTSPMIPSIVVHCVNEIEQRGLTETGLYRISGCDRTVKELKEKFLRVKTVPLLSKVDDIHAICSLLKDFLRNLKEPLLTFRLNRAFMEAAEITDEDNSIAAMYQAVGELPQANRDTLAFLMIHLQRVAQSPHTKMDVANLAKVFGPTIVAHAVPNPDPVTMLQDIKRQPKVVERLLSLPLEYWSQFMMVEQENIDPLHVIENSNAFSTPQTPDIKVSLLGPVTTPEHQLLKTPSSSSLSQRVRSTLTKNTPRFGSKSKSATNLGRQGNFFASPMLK

HEK293 [4] = experiment: NOD2 signaling inhibitors in MDP-stimulated cells, cell-based, uHTS, luminescence (AID 2001); type: functional; conditions: Homo sapiens
Nonstructural protein 1 = Nonstructural protein 1 (Influenza A virus, UniProt Q194T2); type: functional, Influenza A virus (A/California/07/2009(H1N1))
MDCK [5] = experiment: MDCK cell cytotoxicity, dose response, cytotoxicity control (AID 540296); type: functional; conditions: Canis lupus familiaris
MDCK [6] = experiment: antiviral activity against H1N1 influenza, dose response, cell-based, strain KY136 (AID 540257); type: functional; conditions: Canis lupus familiaris
X-box-binding protein 1 = X-box-binding protein 1 (Homo sapiens, UniProt P17861); type: functional, Cricetulus griseus;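 note: confirmatory dose-response counter-screen serving a CHOP assay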
[7] = cytotoxicity toward NIH3T3 fibroblasts, dose response, counter-screen, cell-based, ATP luminescence, mouse fibroblasts (AID 2010); type: functional;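 note: cells exposed to compound for about 90 hours before reading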
HEK293 [8] = experiment: cells; type: functional, cell-based; conditions: Homo sapiens
HeLa = experiment: Cytotoxicity counterscreen assay for transcriptional activators of heat shock protein 70 (Hsp70). [Related pubchem assays: 1203, 1252 ]; type: functional; conditions: Homo sapiens;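 note: cells exposed to compound for 16 hours before readout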
[9] = target: G-protein coupled receptor 55 (Homo sapiens, UniProt Q9Y2T6); experiment: GPR55 agonists via beta-arrestin recruitment, primary screen, imaging, U2OS cells, beta-arrestin-GFP redistribution (AID 1961); type: functional
[10] = target: T2, Sphingosine 1-phosphate receptor 4 (Homo sapiens, UniProt O95977); experiment: Fluorescence dose response cell-based high throughput screening assay for antagonists of the Sphingosine 1-Phosphate Receptor 4 (S1P4). [Related pubchem assays: 1524 (Confirmation in triplicates.), 1510 (Primary screen.)]; type: functional
T2 sequence (O95977 whole entry): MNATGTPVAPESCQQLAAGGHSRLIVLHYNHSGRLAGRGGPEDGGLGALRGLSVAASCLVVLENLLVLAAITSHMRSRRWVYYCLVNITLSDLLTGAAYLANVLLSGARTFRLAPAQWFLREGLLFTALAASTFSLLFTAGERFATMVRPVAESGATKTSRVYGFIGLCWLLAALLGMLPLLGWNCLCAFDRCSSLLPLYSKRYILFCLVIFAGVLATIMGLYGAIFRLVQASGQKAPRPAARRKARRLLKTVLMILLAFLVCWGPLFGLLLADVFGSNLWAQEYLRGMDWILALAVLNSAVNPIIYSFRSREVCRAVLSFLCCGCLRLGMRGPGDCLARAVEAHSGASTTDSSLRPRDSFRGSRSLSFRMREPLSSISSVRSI

HEK293 [11] = experiment: cells; type: functional, cell-based; conditions: Homo sapiens; remark: listed apart in the source
[12] = target: Sphingosine 1-phosphate receptor 1 (Homo sapiens, UniProt P21453); type: functional;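 note: Tango beta-arrestin reporter U2OS cells stimulated with S1P near its EC80; inhibitor potency meaning antagonism of receptor activation by the natural agonist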
HEK293 [13] = experiment: NOD1 signaling inhibitors, primary screen, cell-based, luminescence, uHTS (AID 1578); type: functional; conditions: Homo sapiens
[14] = HeLa cell cytotoxicity, dose response, cytotoxicity control for MgcRacGAP inhibitor project (AID 624300); type: functional
Vero = experiment: Vero E6 cell cytotoxicity, dose response, cytotoxicity control (AID 540298); type: functional; conditions: Chlorocebus sabaeus
[15] = cytotoxicity in HEK-293T cells, dose response, cytotoxicity control for TCR NF-kB inhibitor project, luminescence, T-cell screen hits (AID 489026); type: functional, cell-based;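 note: cells exposed to compound about 14 hours before the viability readout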
BJ [16] = experiment: cells; type: functional, cell-based; conditions: Homo sapiens
[17] = luciferase reporter signal reduction – luminescence, H4-C neuroglioblastoma cells, dose response (AID 2458); type: functional, cell-based;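 note: H4 neuroglioblastoma cells stably carrying a luciferase reporter gene fusion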
[18] = inhibitors of SNCA 5'UTR-driven translation, confirmation, luminescence, H4 neuroglioblastoma cells, dose confirmation (AID 2454); type: functional, cell-based;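 note: H4 neuroglioblastoma cells carrying an alpha-synuclein 5'UTR luciferase reporter; potency for inhibition of the luciferase signal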
[19] = target: Disintegrin and metalloproteinase domain-containing protein 17 (Homo sapiens, UniProt P78536); experiment: exosite inhibitors of ADAM17, dose response, biochemical (AID 743260)
[20] = inhibitors of SNCA 5'UTR-driven reporter translation, confirmation, H4 neuroglioma cells, luminescence (AID 1988); type: functional, cell-based
[21] = cytotoxicity toward DRD oncogenic fibroblasts, dose response, cell-based, non-viral oncogenic, luminescence (AID 1934); type: functional; conditions: Homo sapiens
BJ [22] = experiment: cytotoxicity toward BJ-TERT-LT-ST fibroblasts, dose response, cell-based, RAS-independent, luminescence (AID 1935); type: functional; conditions: Homo sapiens;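 note: BJ fibroblasts immortalized with TERT plus LT and ST oncogenes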
[23] = Luminescence Cell-Based Dose Response HTS to Identify Inhibitors of 5'UTR Stem-Loop Driven Prion Protein mRNA Translation in H4 Neuroglioblastoma Cells. [Related pubchem assays: 1827 (Project Summary), 1813 (Primary HTS)]; type: functional
cells = type: functional, cell-based
BJ [24] = experiment: cytotoxicity toward BJ-TERT fibroblasts, dose response, cell-based, RAS-independent, luminescence (AID 1933); type: functional; conditions: Homo sapiens
[25] = ADAM10 protease inhibitors, dose response, selectivity assay for ADAM17 exosite inhibitor project, biochemical, FRET peptide substrate, recombinant human ADAM10 (AID 743259);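 note: ADAM10 enzyme cleaving a FRET peptide substrate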
[26] = target: Acyl-homoserine lactone acylase PvdQ (Pseudomonas aeruginosa (strain LESB58), UniProt Q9I194); experiment: P. aeruginosa PvdQ acylase inhibitors, dose response, biochemical, fluorescence, plate reader and imaging, cherry-picks (AID 493231)
[27] = target: Scavenger receptor class B member 1 (Mus musculus, UniProt Q61009); experiment: inhibitors of SR-BI mediated HDL lipid uptake, dose response, ldlA[mSR-BI] cells, fluorescence, cherry pick (AID 493194); type: functional, cell-based;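 note: cellular uptake of fluorescent DiI-labeled HDL measured as cell fluorescence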
[28] = target: T3, Eukaryotic translation initiation factor 2-alpha kinase 3 (Homo sapiens, UniProt Q9NZJ5); experiment: Counterscreen assay for PERK inhibitors: Dose response cell-based high throughput screening assay to measure inhibition of PERK at 6 hours. [Related pubchem assays: 1522, 1416 ]; type: functional
[29] = target: T3, Eukaryotic translation initiation factor 2-alpha kinase 3; experiment: Dose response cell-based high-throughput screening assay to measure PERK inhibition. [Related pubchem assays: 1416 ]; type: functional
[30] = target: Dual specificity protein phosphatase 3 (Homo sapiens, UniProt P51452); experiment: VHR1 inhibitor Ki determination, SAR follow-up, biochemical, colorimetric (AID 2004)

COC(=O)c1ccc2c(c1)C(C)(C)C(/C=C/c1ccccc1O)=[N+]2C.[I-]
inactive: IC50 (HEK293 [4]) 11.7 µM | IC50 (HEK293 [8]) > 20 µM
active: EC50 [1] 18.3 µM | EC50 [2] 0.584 µM | IC50 [3] 21 µM | IC50 (Nonstructural protein 1) 22.7 µM | CC50 (MDCK [5]) 5.8 µM | IC50 (MDCK [6]) 8.58 µM | EC50 [7] 4.69 µM | CC50 (HeLa) 8.49 µM | EC50 [9] 2.75 µM | IC50 [10] 0.798 µM | IC50 (HEK293 [11]) 5.74 µM | IC50 [12] 4.76 µM | EC50 (HEK293 [13]) 7.83 µM | CC50 [14] 30.9 µM | CC50 (Vero) 4.79 µM
10 µM: Absolute IC50 (XBP1) (X-box-binding protein 1)

Cc1cc(C)c(S(=O)(=O)Nc2ccc3c4c(cccc24)CC3)c(C)c1
active: EC50 [17] 1.06 µM | EC50 [18] 1.2 µM | EC50 [20] < 0.1 µM | EC50 [23] 9.52 µM | EC50 (cells) 2.97 µM | EC50 (BJ [24]) 0.288 µM
inconclusive: EC50 (BJ [16]) 2.1 µM | EC50 [21] 0.383 µM | EC50 (BJ [22]) 0.246 µM
inactive: IC50 [15] > 80 µM | IC50 [19] > 69.5 µM | IC50 [25] > 69.5 µM

N#CC(c1cccc(Cl)c1)c1ncc(C(F)(F)F)cc1Cl (stereo not given)
active: AC50 [26] 2.74 µM

COc1cc(NC(=O)c2cc(-c3ccccc3Cl)on2)cc(OC)c1OC
active: AC50 [27] 32 µM

CCS(=O)(=O)N1CCC(C(=O)NCc2ccc(F)cc2)CC1
> 55.7 µM (not active): EC50 [28] | EC50 [29]

O=C1NC(=S)N(c2ccc(Cl)cc2)C(=O)/C1=C/c1ccc(-c2ccccc2C(=O)O)o1
inactive: Ki [30] 36.6 µM
